Measured values as given in patent publication US12459951B2, “Compounds that interact with RAS superfamily proteins for treatment of cancers, inflammatory diseases, rasopathies, and fibrotic disease” (SHY Therapeutics, LLC, priority 2022, dated 2025).

Experiments:
[1] = system: Akt phosphorylation; experiment: Akt Phosphorylation Assay (western blot), Panc-1; format: cell-based, human; details: at 10 μM, * = activation
Summary of the method: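 Panc-1 (KRas G12D) cells were treated with compound at 10 μM final (0.3% DMSO) for 6 h at 37 °C, or with serial dilutions for IC50. Cells were either serum-starved overnight in 0.5% FBS and then stimulated with 1.5 ng/ml EGF for 15 min, or kept in 10% FBS without stimulation. Akt Ser473 phosphorylation in lysates was read by western blot.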

[2] = system: KRas G12C mutant; experiment: Ras GTP Binding Domain Inhibition Assay (Ras Superfamily Assay); details: 20 μM compound
Summary of the method: (§1)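 Binding of 100 nM fluorescent GTP (Cy3 or Cy5, 45 min, room temperature) was read after washes from plate-captured His-tagged protein. Beforehand, compounds at 20 μM or in dilution series for IC50 sat 3 h on the protein in Tris buffer pH 7.4 or 7.0 with 1% DMSO, Sos GEF optionally added for the last hour.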

[3] = system: KRas G12D mutant; experiment: as above; details: for KRas G12D mutant + SOS: % inh.: with SOS; for KRas G12D mutant: % inh.: without SOS
Summary of the method: as §1

[4] = system: KRas wild type; experiment: as above; details: for KRas wild type + SOS: % inh.: with SOS; for KRas wild type: % inh.: without SOS
Summary of the method: as §1

[5] = target: T1, Rac-1 (Homo sapiens, UniProt P63000); experiment: as above; details: read-out: Rac-1: % inh.
T1 construct: made in house
Summary of the method: as §1

[6] = target: T2, Rho-A (Homo sapiens, UniProt P61586); experiment: as above; details: read-out: Rho-A: % inh..
T2 construct: made in house
T2 sequence (P61586 whole entry): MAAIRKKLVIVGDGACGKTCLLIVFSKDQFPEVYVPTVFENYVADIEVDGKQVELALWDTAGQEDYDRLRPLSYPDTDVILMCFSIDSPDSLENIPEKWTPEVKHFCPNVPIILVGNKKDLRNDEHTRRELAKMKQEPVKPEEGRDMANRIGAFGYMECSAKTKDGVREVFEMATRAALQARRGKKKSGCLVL
Summary of the method: as §1

Structure (SMILES)	% inh of Akt phosphorylation in Panc-1 [1]	KRas G12C mutant + SOS: % inh. ([2]; with SOS)	KRas G12C mutant: % inh. ([2]; without SOS)	KRas G12D mutant + SOS: % inh. ([3]; 20 μM compound)	KRas G12D mutant: % inh. ([3]; 20 μM compound)	KRas wild type + SOS: % inh. ([4]; 20 μM compound)	KRas wild type: % inh. ([4]; 20 μM compound)	inhibition at 20 µM [5] [%]	inhibition at 20 µM [6] [%]	KRas G12D mutant + SOS: % inh. ([3]; at 20 μM)	KRas G12D mutant: % inh. ([3]; at 20 μM)	KRas wild type + SOS: % inh. ([4]; at 20 μM)	KRas wild type: % inh. ([4]; at 20 μM)
COc1cc(Nc2nc(-c3nccn3C)nn3cc(-c4ccn(C(C)C)n4)c(C)c23)n[nH]1 [Compound 51, 6-(1-Isopropyl-1H-pyrazol-3-yl)-N-(5-methoxy-1H-pyrazol-3-yl)-5-methyl-2-(1-methyl-1H-imidazol-2-yl)pyrrolo[2,1-f][1,2,4]triazin-4-amine]	D* (85-100% activation)	C (C = 50-75% inhibition)	C (C = 50-75% inhibition)	C (C = 50-75% inhibition)	D (D = 76-100% inhibition)	C (C = 50-75% inhibition)	D (D = 76-100% inhibition)	76 to 100	76 to 100	–	–	–	–
Cc1c(-c2ccn(C)n2)cn2nc(-c3nccn3C)nc(Nc3cc(-c4ccccn4)[nH]n3)c12 [Compound 265, 5-Methyl-2-(1-methyl-1H-imidazol-2-yl)-6-(1-methyl-1H-pyrazol-3-yl)-N-(5-(pyridin-2-yl)-1H-pyrazol-3-yl)pyrrolo[2,1-f][1,2,4]triazin-4-amine]	D* (85-100% activation)	–	–	–	–	–	–	76 to 100	–	D (D = 76-100% inhibition)	C (C = 50-75% inhibition)	D (D = 76-100% inhibition)	–
Cc1c(-c2ccn(C)n2)cn2nc(-c3nccn3C)nc(Nc3cc(-n4ccnc4)ccn3)c12 [Compound 245, N-(4-(1H-imidazol-1-yl)pyridin-2-yl)-5-methyl-2-(1-methyl-1H-imidazol-2-yl)-6-(1-methyl-1H-pyrazol-3-yl)pyrrolo[2,1-f][1,2,4]triazin-4-amine]	D* (85-100% activation)	–	–	–	–	–	–	50 to 75	–	C (C = 50-75% inhibition)	C (C = 50-75% inhibition)	B (B = 26-49% inhibition)	A (A = 1-25% inhibition)
COc1ccc(Nc2nc(-c3nccn3C)nn3cc(-c4ccn(C(C)C)n4)c(C)c23)nn1 [Compound 74, 6-(1-Isopropyl-1H-pyrazol-3-yl)-N-(6-methoxypyridazin-3-yl)-5-methyl-2-(1-methyl-1H-imidazol-2-yl)pyrrolo[2,1-f][1,2,4]triazin-4-amine]	D* (85-100% activation)	–	–	–	–	–	–	1 to 25	26 to 49	–	–	–	–
COc1cc(Nc2nc(-c3nccn3C)nn3cc(-c4ccn(C)n4)c(C)c23)n[nH]1 [Compound 252, N-(5-Methoxy-1H-pyrazol-3-yl)-5-methyl-2-(1-methyl-1H-imidazol-2-yl)-6-(1-methyl-1H-pyrazol-3-yl)pyrrolo[2,1-f][1,2,4]triazin-4-amine]	D* (85-100% activation)	–	–	–	–	–	–	76 to 100	–	D (D = 76-100% inhibition)	D (D = 76-100% inhibition)	D (D = 76-100% inhibition)	C (C = 50-75% inhibition)
COc1cccc(-c2cn3nc(-c4nccn4C)nc(N[C@H]4C[C@H](OC)C4)c3c2-c2ccccn2)c1C [Compound 274, 6-(3-Methoxy-2-methylphenyl)-N-((1r,3r)-3-methoxycyclobutyl)-2-(1-methyl-1H-imidazol-2-yl)-5-(pyridin-2-yl)pyrrolo[2,1-f][1,2,4]triazin-4-amine]	D (85-100% inhibition)	–	–	–	–	–	–	0	–	A (A = 1-25% inhibition)	B (B = 26-49% inhibition)	0 (0 = 0% inhibition)	0 (0 = 0% inhibition)
Cc1c(-c2ccn(C)n2)cn2nc(-c3nccn3C)nc(Oc3cc(N)[nH]n3)c12 [Compound 262, 3-((5-Methyl-2-(1-methyl-1H-imidazol-2-yl)-6-(1-methyl-1H-pyrazol-3-yl)pyrrolo[2,1-f][1,2,4]triazin-4-yl)oxy)-1H-pyrazol-5-amine]	B (26-49% inhibition)	–	–	–	–	–	–	50 to 75	–	D (D = 76-100% inhibition)	D (D = 76-100% inhibition)	C (C = 50-75% inhibition)	B (B = 26-49% inhibition)
Cc1c(-c2ccn(C)n2)cn2nc(-c3nccn3C)nc(Nc3ccc(N4CCOCC4)cn3)c12 [Compound 247, 5-Methyl-2-(1-methyl-1H-imidazol-2-yl)-6-(1-methyl-1H-pyrazol-3-yl)-N-(5-morpholinopyridin-2-yl)pyrrolo[2,1-f][1,2,4]triazin-4-amine]	D* (85-100% activation)	–	–	–	–	–	–	76 to 100	–	D (D = 76-100% inhibition)	D (D = 76-100% inhibition)	D (D = 76-100% inhibition)	D (D = 76-100% inhibition)
Cc1c(-c2ccn(C)n2)cn2nc(-c3nccn3C)nc(Nc3cc(C(F)F)[nH]n3)c12 [Compound 258, N-(5-(Difluoromethyl)-1H-pyrazol-3-yl)-5-methyl-2-(1-methyl-1H-imidazol-2-yl)-6-(1-methyl-1H-pyrazol-3-yl)pyrrolo[2,1-f][1,2,4]triazin-4-amine]	A (1-25% inhibition)	–	–	–	–	–	–	0	–	0 (0 = 0% inhibition)	0 (0 = 0% inhibition)	0 (0 = 0% inhibition)	A (A = 1-25% inhibition)
Cc1c(-c2ccn(C)n2)cn2nc(-c3nccn3C)nc(Nc3cc(-c4ccccn4)ccn3)c12 [Compound 248, N-([2,4′-Bipyridin]-2′-yl)-5-methyl-2-(1-methyl-1H-imidazol-2-yl)-6-(1-methyl-1H-pyrazol-3-yl)pyrrolo[2,1-f][1,2,4]triazin-4-amine]	D* (85-100% activation)	–	–	–	–	–	–	76 to 100	–	D (D = 76-100% inhibition)	D (D = 76-100% inhibition)	D (D = 76-100% inhibition)	D (D = 76-100% inhibition)
Cc1c(-c2ccn(C)n2)cn2nc(-c3nccn3C)nc(Nc3cc(-n4ccnc4C)ccn3)c12 [Compound 246, 5-Methyl-N-(4-(2-methyl-1H-imidazol-1-yl)pyridin-2-yl)-2-(1-methyl-1H-imidazol-2-yl)-6-(1-methyl-1H-pyrazol-3-yl)pyrrolo[2,1-f][1,2,4]triazin-4-amine]	D* (85-100% activation)	–	–	–	–	–	–	76 to 100	–	D (D = 76-100% inhibition)	D (D = 76-100% inhibition)	D (D = 76-100% inhibition)	D (D = 76-100% inhibition)
Cc1c(-c2ccn(C)n2)cn2nc(-c3nccn3C)nc(Nc3cc(-c4cccnc4)ccn3)c12 [Compound 250, N-([3,4′-Bipyridin]-2′-yl)-5-methyl-2-(1-methyl-1H-imidazol-2-yl)-6-(1-methyl-1H-pyrazol-3-yl)pyrrolo[2,1-f][1,2,4]triazin-4-amine]	D* (85-100% activation)	–	–	–	–	–	–	76 to 100	–	D (D = 76-100% inhibition)	D (D = 76-100% inhibition)	D (D = 76-100% inhibition)	D (D = 76-100% inhibition)
Cc1c(-c2ccn(C)n2)cn2nc(-c3nccn3C)nc(Nc3cc(C(F)(F)F)[nH]n3)c12 [Compound 259, 5-Methyl-2-(1-methyl-1H-imidazol-2-yl)-6-(1-methyl-1H-pyrazol-3-yl)-N-(5-(trifluoromethyl)-1H-pyrazol-3-yl)pyrrolo[2,1-f][1,2,4]triazin-4-amine]	D* (85-100% activation)	–	–	–	–	–	–	76 to 100	–	D (D = 76-100% inhibition)	C (C = 50-75% inhibition)	D (D = 76-100% inhibition)	C (C = 50-75% inhibition)
